Measured values published in patent publication US9067935B2 (Janssen Pharmaceutica, NV, priority 2010, dated 2015).

Biological target: canine TRPM8 (Canis lupus familiaris, UniProt Q1A7N1)
Assay: In Vitro Canine TRPM8 Functional Assay (intracellular Ca2+ fluorescence, icilin challenge)
Type: cell-based
Conditions: HEK293 cells stably expressing canine TRPM8; for inhibition at 0.2 µM: HEK293, @ 0.2 μM, read-out: % Inh (%) @ 0.2 μM; for IC50: icilin at ~80% maximal response
Method: The functional activity of compounds of the formula (I) was determined by measuring changes in intracellular calcium concentration using a Ca^2+-sensitive fluorescent dye. The changes in fluorescent signal were monitored by a fluorescence plate reader, either a FLIPR™ (Molecular Devices) or FDSS (Hamamatsu).
At 24 hrs prior to assay, HEK293 cells stably expressing canine TRPM8 were seeded in culture medium in black wall, clear-base poly-D-lysine coated 384-well plates (BD Biosciences, NJ, USA) and grown overnight in 5% CO2 at 37° C. On assay day, growth media was removed and cells were loaded with Calcium 3 Dye (Molecular Devices) for 35 min at 37° C., under 5% CO2 and then for 25 min at room temperature and atmosphere. Subsequently, cells were tested for agonist-induced increases in intracellular Ca^2+ levels using FLIPR™ or FDSS. Cells were challenged with a compound of the Formula (I) (at varying concentrations) and intracellular Ca^2+ was measured for 5 min prior to the addition of icilin to all wells to achieve a final concentration that produces approximately an 80% maximal response. EC50 or IC50 values for compounds of the present invention were determined from eight-point dose-response studies. Curves were generated using the average of quadruplicate wells for each data point.

canine TRPM8, sequence (Q1A7N1 1-1104): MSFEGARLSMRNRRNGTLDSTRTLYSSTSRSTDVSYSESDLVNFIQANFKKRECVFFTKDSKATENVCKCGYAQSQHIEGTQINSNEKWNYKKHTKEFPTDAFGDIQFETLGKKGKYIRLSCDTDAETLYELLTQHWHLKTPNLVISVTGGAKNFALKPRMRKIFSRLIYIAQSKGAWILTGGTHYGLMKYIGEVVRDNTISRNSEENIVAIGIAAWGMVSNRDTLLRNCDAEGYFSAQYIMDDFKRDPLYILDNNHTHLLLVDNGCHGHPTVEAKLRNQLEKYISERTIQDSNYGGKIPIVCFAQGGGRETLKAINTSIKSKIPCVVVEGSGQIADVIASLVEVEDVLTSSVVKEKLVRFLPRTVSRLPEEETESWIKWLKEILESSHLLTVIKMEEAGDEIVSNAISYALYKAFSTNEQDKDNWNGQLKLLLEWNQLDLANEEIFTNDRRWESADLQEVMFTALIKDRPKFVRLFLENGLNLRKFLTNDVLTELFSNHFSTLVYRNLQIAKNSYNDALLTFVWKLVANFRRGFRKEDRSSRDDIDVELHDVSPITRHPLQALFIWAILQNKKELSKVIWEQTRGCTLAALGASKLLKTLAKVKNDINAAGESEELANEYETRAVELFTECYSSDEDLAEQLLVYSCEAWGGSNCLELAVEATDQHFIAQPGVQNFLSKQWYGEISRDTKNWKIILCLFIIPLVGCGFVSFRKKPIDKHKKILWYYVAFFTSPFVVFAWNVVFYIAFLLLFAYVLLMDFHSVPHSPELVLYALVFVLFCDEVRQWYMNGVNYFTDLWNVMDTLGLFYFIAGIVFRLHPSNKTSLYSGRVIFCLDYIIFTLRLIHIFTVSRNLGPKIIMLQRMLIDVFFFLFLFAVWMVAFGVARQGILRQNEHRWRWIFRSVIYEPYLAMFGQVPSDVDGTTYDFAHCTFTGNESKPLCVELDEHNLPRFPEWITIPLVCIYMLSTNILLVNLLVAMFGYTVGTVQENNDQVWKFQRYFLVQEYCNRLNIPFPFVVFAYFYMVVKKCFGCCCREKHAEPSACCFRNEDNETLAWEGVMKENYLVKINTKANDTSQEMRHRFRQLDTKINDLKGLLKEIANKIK

Compound: CCc1c(N(Cc2ccc(F)c(C(F)(F)F)c2)S(=O)(=O)c2ccccc2)nc2c(C(F)(F)F)cccn12 [Compound 55, N-(3-Ethyl-8-trifluoromethylimidazo[1,2-a]pyridin-2-yl)-N-(4-fluoro-3-trifluoromethylbenzyl)benzenesulfonamide]
- inhibition at 0.2 µM: 94%
- IC50: 33.4 nM

Compound: CCc1c(N(Cc2ccc(C(F)(F)F)c(F)c2)S(=O)(=O)c2ccccc2)nc2c(C(F)(F)F)cccn12 [Compound 56]
- inhibition at 0.2 µM: 99%
- IC50: 65 nM

Compound: CCc1c(N(Cc2ccc(OC(F)(F)F)cc2)S(=O)(=O)c2ccccc2)nc2c(C(F)(F)F)cccn12 [Compound 57]
- inhibition at 0.2 µM: 82%
- IC50: 96.6 nM

Compound: CCc1c(N(Cc2ccc(C(F)(F)F)cc2)S(=O)(=O)c2ccccc2)nc2c(C(F)(F)F)cccn12 [Compound 58]
- inhibition at 0.2 µM: 87%
- IC50: 71.5 nM

Compound: CCc1c(N(Cc2cccc(C(F)(F)F)c2)S(=O)(=O)c2ccccc2)nc2c(C(F)(F)F)cccn12 [Compound 59]
- inhibition at 0.2 µM: 97%
- IC50: 80.2 nM

Compound: O=S(=O)(c1ccccc1)N(Cc1ccc(C(F)(F)F)c(F)c1)c1nc2ccc(C(F)(F)F)cn2c1Cl [Compound 60, N-(3-Chloro-6-trifluoromethylimidazo[1,2-a]pyridin-2-yl)-N-(3-fluoro-4-trifluoromethylbenzyl)benzenesulfonamide]
- inhibition at 0.2 µM: 55%

Compound: O=S(=O)(c1ccccc1)N(Cc1ccc(OC(F)(F)F)cc1)c1nc2ccc(C(F)(F)F)cn2c1Cl [Compound 61]
- inhibition at 0.2 µM: 47%

Compound: O=S(=O)(c1ccccc1)N(Cc1ccc(F)c(C(F)(F)F)c1)c1nc2ccc(C(F)(F)F)cn2c1Cl [Compound 62]
- inhibition at 0.2 µM: 56%

Compound: CCc1c(N(CCC2CC2)S(=O)(=O)c2ccccc2)nc2c(C(F)(F)F)cccn12 [Compound 63, N-(2-Cyclopropylethyl)-N-(3-ethyl-8-trifluoromethylimidazo[1,2-a]pyridin-2-yl)benzenesulfonamide]
- inhibition at 0.2 µM: 99%
- IC50: 24.1 nM

Compound: CCc1c(N(CCCCC(F)(F)F)S(=O)(=O)c2ccccc2)nc2c(C(F)(F)F)cccn12 [Compound 64]
- inhibition at 0.2 µM: 99%
- IC50: 22 nM

Compound: CCc1c(N(CC2CC2)S(=O)(=O)c2ccccc2)nc2c(C(F)(F)F)cccn12 [Compound 65]
- inhibition at 0.2 µM: 72%
- IC50: 62.8 nM

Compound: CCc1c(N(CCC(F)(F)F)S(=O)(=O)c2ccccc2)nc2c(C(F)(F)F)cccn12 [Compound 66]
- inhibition at 0.2 µM: 83%

Compound: Cc1ccn2c(C)c(N(Cc3ccc(OC(F)(F)F)cc3)S(=O)(=O)c3ccc(F)cc3)nc2c1 [Compound 67]
- inhibition at 0.2 µM: 96%
- IC50: 62.1 nM

Compound: Cc1ccc2nc(N(Cc3ccc(C(F)(F)F)c(F)c3)S(=O)(=O)c3ccc(F)cc3)c(C)n2c1 [Compound 68]
- inhibition at 0.2 µM: 100%
- IC50: 41.6 nM

Compound: O=S(=O)(c1ccccc1)N(Cc1ccc(F)c(C(F)(F)F)c1)c1nc2ccccn2c1C1CC1 [Compound 69]
- % Inh (%) @ 0.2 μM (@ 0.2 μM): 101%
- IC50: 28.2 nM

Compound: O=S(=O)(c1ccccc1)N(Cc1ccc(C(F)(F)F)c(F)c1)c1nc2ccccn2c1C1CC1 [Compound 70]
- inhibition at 0.2 µM: 101%
- IC50: 8.21 nM

Compound: O=S(=O)(c1ccccc1)N(Cc1ccc(OC(F)(F)F)cc1)c1nc2ccccn2c1C1CC1 [Compound 71]
- inhibition at 0.2 µM: 101%
- IC50: 21.5 nM

Compound: O=S(=O)(c1ccccc1)N(Cc1ccc(C(F)(F)F)cc1)c1nc2ccccn2c1C1CC1 [Compound 72]
- inhibition at 0.2 µM: 101%
- IC50: 11.3 nM

Compound: O=S(=O)(c1ccccc1)N(Cc1cccc(C(F)(F)F)c1)c1nc2ccccn2c1C1CC1 [Compound 73]
- inhibition at 0.2 µM: 100%

Compound: O=S(=O)(c1ccc(N2CCOCC2)nc1)N(Cc1ccc(C(F)(F)F)c(F)c1)c1nc2ccc(Cl)cn2c1Cl [Compound 74]
- inhibition at 0.2 µM: 74%
- IC50: 62.6 nM

Compound: O=S(=O)(c1ccc(-n2cccn2)cc1)N(Cc1ccc(C(F)(F)F)c(F)c1)c1nc2ccccn2c1Br [Compound 75]
- inhibition at 0.2 µM: 99%
- IC50: 1.94 nM

Compound: O=S(=O)(c1ccc(N2CCOCC2)nc1)N(Cc1ccc(OC(F)(F)F)cc1)c1nc2ccc(Cl)cn2c1Cl [Compound 76]
- inhibition at 0.2 µM: 72%
- IC50: 70.5 nM

Compound: O=S(=O)(c1ccc(-n2cccn2)cc1)N(Cc1ccc(OC(F)(F)F)cc1)c1nc2ccccn2c1Br [Compound 77]
- inhibition at 0.2 µM: 100%
- IC50: 2.27 nM

Compound: O=S(=O)(c1ccc(N2CCOCC2)nc1)N(Cc1ccc(F)c(C(F)(F)F)c1)c1nc2ccc(Cl)cn2c1Cl [Compound 78]
- inhibition at 0.2 µM: 26%

Compound: O=S(=O)(c1ccc(-n2cccn2)cc1)N(Cc1ccc(F)c(C(F)(F)F)c1)c1nc2ccccn2c1Br [Compound 79]
- inhibition at 0.2 µM: 99%
- IC50: 3.17 nM

Compound: CCc1c(N(Cc2ccc(C(F)(F)F)c(F)c2)S(=O)(=O)c2ccccc2)nc2cccc(C)n12 [Compound 80]
- inhibition at 0.2 µM: 99%
- IC50: 12.1 nM

Compound: CCc1c(N(Cc2ccc(F)c(C(F)(F)F)c2)S(=O)(=O)c2ccccc2)nc2ccc(Cl)cn12 [Compound 82]
- inhibition at 0.2 µM: 100%
- IC50: 14.2 nM

Compound: O=S(=O)(c1ccc(N2CCOCC2)nc1)N(Cc1ccccc1)c1nc2ccccn2c1Br [Compound 83]
- inhibition at 0.2 µM: 87%
- IC50: 74.6 nM

Compound: O=S(=O)(c1ccc(N2CCOCC2)nc1)N(Cc1ccc(OC(F)(F)F)cc1)c1nc2ccccn2c1Br [Compound 84]
- inhibition at 0.2 µM: 100%
- IC50: 11.5 nM

Compound: O=S(=O)(c1ccc(N2CCOCC2)nc1)N(Cc1ccc(C(F)(F)F)c(F)c1)c1nc2ccccn2c1Br [Compound 85]
- inhibition at 0.2 µM: 100%
- IC50: 31.2 nM

Compound: O=S(=O)(c1ccc(N2CCOCC2)nc1)N(Cc1ccc(F)c(C(F)(F)F)c1)c1nc2ccccn2c1Br [Compound 86]
- inhibition at 0.2 µM: 99%
- IC50: 10.7 nM

Compound: CCc1c(N(Cc2ccc(C(F)(F)F)c(F)c2)S(=O)(=O)c2ccc(N3CCOCC3)nc2)nc2ccc(Cl)cn12 [Compound 87]
- inhibition at 0.2 µM: 86%
- IC50: 86.3 nM

Compound: CCc1c(N(Cc2ccc(C(F)(F)F)c(F)c2)S(=O)(=O)c2ccc(-n3cccn3)cc2)nc2ccc(Cl)cn12 [Compound 88]
- inhibition at 0.2 µM: 100%
- IC50: 41.4 nM

Compound: CCc1c(N(Cc2ccc(OC(F)(F)F)cc2)S(=O)(=O)c2ccc(-n3cccn3)cc2)nc2ccc(Cl)cn12 [Compound 89]
- inhibition at 0.2 µM: 99%
- IC50: 25 nM

Compound: O=S(=O)(c1ccc(N2CCOCC2)nc1)N(Cc1ccc(F)c(C(F)(F)F)c1)c1nc2ccccn2c1Cl [Compound 90, N-(3-Chloroimidazo[1,2-a]pyridin-2-yl)-N-(4-fluoro-3-trifluoromethylbenzyl)-6-morpholin-4-yl-pyridine-3-sulfonamide]
- inhibition at 0.2 µM: 99%
- IC50: 26.9 nM

Compound: O=S(=O)(c1ccc(N2CCOCC2)nc1)N(Cc1ccc(C(F)(F)F)c(F)c1)c1nc2ccccn2c1Cl [Compound 91]
- inhibition at 0.2 µM: 99%
- IC50: 41.6 nM

Compound: O=S(=O)(c1ccc(N2CCOCC2)nc1)N(Cc1ccc(OC(F)(F)F)cc1)c1nc2ccccn2c1Cl [Compound 92]
- inhibition at 0.2 µM: 99%
- IC50: 25 nM

Compound: O=S(=O)(c1ccc(N2CCOCC2)nc1)N(Cc1ccc(C(F)(F)F)cc1)c1nc2ccccn2c1Cl [Compound 93]
- inhibition at 0.2 µM: 98%
- IC50: 26.9 nM

Compound: O=S(=O)(c1ccc(N2CCOCC2)nc1)N(Cc1cccc(C(F)(F)F)c1)c1nc2ccccn2c1Cl [Compound 94]
- inhibition at 0.2 µM: 97%
- IC50: 48.4 nM

Compound: O=S(=O)(c1ccc(-n2cccn2)cc1)N(Cc1ccc(F)c(C(F)(F)F)c1)c1nc2ccccn2c1Cl [Compound 95]
- inhibition at 0.2 µM: 99%
- IC50: 7 nM

Compound: O=S(=O)(c1ccc(-n2cccn2)cc1)N(Cc1ccc(C(F)(F)F)c(F)c1)c1nc2ccccn2c1Cl [Compound 96]
- inhibition at 0.2 µM: 100%
- IC50: 5.5 nM

Compound: O=S(=O)(c1ccc(-n2cccn2)cc1)N(Cc1ccc(OC(F)(F)F)cc1)c1nc2ccccn2c1Cl [Compound 97]
- inhibition at 0.2 µM: 99%
- IC50: 8.48 nM

Compound: O=S(=O)(c1ccc(-n2cccn2)cc1)N(Cc1ccc(C(F)(F)F)cc1)c1nc2ccccn2c1Cl [Compound 98]
- inhibition at 0.2 µM: 99%
- IC50: 4.04 nM

Compound: O=S(=O)(c1ccc(-n2cccn2)cc1)N(Cc1cccc(C(F)(F)F)c1)c1nc2ccccn2c1Cl [Compound 99]
- inhibition at 0.2 µM: 99%
- IC50: 15.1 nM

Compound: Cc1c(N(Cc2ccc(C(F)(F)F)c(F)c2)S(=O)(=O)c2ccccc2)nc2ccc(C(F)(F)F)cn12 [Compound 100, N-(3-Fluoro-4-trifluoromethylbenzyl)-N-(3-methyl-6-trifluoromethylimidazo[1,2-a]pyridin-2-yl)benzenesulfonamide]
- inhibition at 0.2 µM: 31%

Compound: Cc1c(N(Cc2ccc(C(F)(F)F)c(F)c2)S(=O)(=O)c2ccccc2)nc2cc(C(F)(F)F)ccn12 [Compound 101]
- inhibition at 0.2 µM: 22%

Compound: Cc1c(N(Cc2ccc(F)c(C(F)(F)F)c2)S(=O)(=O)c2ccc(-n3cccn3)cc2)nc2ccc(Cl)cn12 [Compound 102, N-(6-chloro-3-methylimidazo[1,2-a]pyridin-2-yl)-N-(4-fluoro-3-trifluoromethylbenzyl)-4-(1H-pyrazol-1-yl)benzenesulfonamide]
- inhibition at 0.2 µM: 100%
- IC50: 21.8 nM

Compound: Cc1c(N(Cc2ccc(C(F)(F)F)c(F)c2)S(=O)(=O)c2ccc(-n3cccn3)cc2)nc2ccc(Cl)cn12 [Compound 103]
- inhibition at 0.2 µM: 98%
- IC50: 24.5 nM
